Laboratory results: article PMC5218480 (PLoS ONE, 2017)

Test system: MV-4-11 cells
Assay: Gene expression microarray analysis (Affymetrix PrimeView) and GSEA
Assay type: cell-based, human
Set-up: RFU PODN (11730768_x_at) / Fold change /veh PODN (11730768_x_at) / RFU LINC00158 (11744669_a_at) / Fold change /veh LINC00158 (11744669_a_at) / RFU DUSP10 (11751237_a_at) / Fold change /veh DUSP10 (11751237_a_at) / RFU ID3 (11757404_x_at) / Fold change /veh ID3 (11757404_x_at) / RFU PLEKHG5 (11737974_s_at) / Fold change /veh PLEKHG5 (11737974_s_at) / RFU LRRC4B (11730491_at) / Fold change /veh LRRC4B (11730491_at) / RFU GIMAP4 (11747438_a_at) / Fold change /veh GIMAP4 (11747438_a_at) / RFU KRT8 (11758183_x_at) / Fold change /veh KRT8 (11758183_x_at) / RFU CNN1 (11734310_a_at) / Fold change /veh CNN1 (11734310_a_at) / RFU VPS37D (11726825_at) / Fold change /veh VPS37D (11726825_at) / RFU C10orf10 (11716522_x_at) / Fold change /veh C10orf10 (11716522_x_at) / RFU KIR2DL2 /// KIR2DL4 /// KIR2DL5A /// KIR2DL5B /// KIR2DS1 /// KIR2DS2 /// KIR2DS3 /// KIR2DS4 /// KIR3DL3 /// KIR3DL3 /// KIR3DS1 (11738374_at) / Fold change /veh KIR2DL2 /// KIR2DL4 /// KIR2DL5A /// KIR2DL5B /// KIR2DS1 /// KIR2DS2 /// KIR2DS3 /// KIR2DS4 /// KIR3DL3 /// KIR3DL3 /// KIR3DS1 (11738374_at) / RFU C1QL1 (11718748_at) / Fold change /veh C1QL1 (11718748_at) / RFU TMPRSS4 (11747572_a_at) / Fold change /veh TMPRSS4 (11747572_a_at) / RFU HAMP (11756126_x_at) / Fold change /veh HAMP (11756126_x_at) / RFU RNFT2 (11725882_a_at) / Fold change /veh RNFT2 (11725882_a_at) / RFU NR4A2 (11747474_a_at) / Fold change /veh NR4A2 (11747474_a_at) / RFU ABCC12 (11746883_a_at) / Fold change /veh ABCC12 (11746883_a_at) / RFU TMEM136 (11760407_x_at) / Fold change /veh TMEM136 (11760407_x_at) / RFU CLDN22 /// WWC2 (11732394_at) / Fold change /veh CLDN22 /// WWC2 (11732394_at) / RFU HLA-DPB1 (11760878_x_at) / Fold change /veh HLA-DPB1 (11760878_x_at) / RFU SPINT1 (11716480_a_at) / Fold change /veh SPINT1 (11716480_a_at) / RFU GAP43 (11754022_s_at) / Fold change /veh GAP43 (11754022_s_at) / RFU A4GNT (11735810_at) / Fold change /veh A4GNT (11735810_at) / RFU PRB3 (11715151_x_at) / Fold change /veh PRB3 (11715151_x_at) / RFU TUBB4B (11761932_at) / Fold change /veh TUBB4B (11761932_at) / RFU CAPN14 (11732068_a_at) / Fold change /veh CAPN14 (11732068_a_at) / RFU TMCC2 (11721928_a_at) / Fold change /veh TMCC2 (11721928_a_at) / RFU IRGQ (11745062_a_at) / Fold change /veh IRGQ (11745062_a_at) / RFU FAM174B (11720279_a_at) / Fold change /veh FAM174B (11720279_a_at) / RFU TMPRSS4 (11748680_a_at) / Fold change /veh TMPRSS4 (11748680_a_at) / RFU FAM212B (11763350_a_at) / Fold change /veh FAM212B (11763350_a_at) / RFU PLEKHG5 (11743358_a_at) / Fold change /veh PLEKHG5 (11743358_a_at) / RFU ZSCAN30 (11745921_a_at) / Fold change /veh ZSCAN30 (11745921_a_at) / RFU CMKLR1 (11741424_a_at) / Fold change /veh CMKLR1 (11741424_a_at) / RFU LOC101060620 /// MAPK8IP1 (11723275_at) / Fold change /veh LOC101060620 /// MAPK8IP1 (11723275_at) / RFU SPTSSB (11747773_x_at) / Fold change /veh SPTSSB (11747773_x_at) / RFU PRSS12 (11739890_at) / Fold change /veh PRSS12 (11739890_at) / RFU BIN1 (11741810_x_at) / Fold change /veh BIN1 (11741810_x_at) / RFU WNT11 (11732464_a_at) / Fold change /veh WNT11 (11732464_a_at) / RFU C10orf10 (11716521_a_at) / Fold change /veh C10orf10 (11716521_a_at) / RFU C5orf56 (11738089_at) / Fold change /veh C5orf56 (11738089_at) / RFU CYB561 (11721691_x_at) / Fold change /veh CYB561 (11721691_x_at) / RFU ANKRD19P (11752326_a_at) / Fold change /veh ANKRD19P (11752326_a_at) / RFU OR2T12 /// OR2T33 /// OR2T8 (11738714_s_at) / Fold change /veh OR2T12 /// OR2T33 /// OR2T8 (11738714_s_at) / RFU VCAN (11748164_a_at) / Fold change /veh VCAN (11748164_a_at) / RFU JSRP1 (11732532_at) / Fold change /veh JSRP1 (11732532_at) / RFU KRTAP10-11 (11738290_x_at) / Fold change /veh KRTAP10-11 (11738290_x_at) / RFU MYO3A (11730013_a_at) / Fold change /veh MYO3A (11730013_a_at) / RFU EBF3 (11725865_a_at) / Fold change /veh EBF3 (11725865_a_at) / RFU CAMK2N1 (11719241_x_at) / Fold change /veh CAMK2N1 (11719241_x_at) / RFU C5orf56 (11738088_a_at) / Fold change /veh C5orf56 (11738088_a_at) / RFU OLFML3 (11715873_a_at) / Fold change /veh OLFML3 (11715873_a_at) / RFU LOC100653217 /// NTM (11731650_a_at) / Fold change /veh LOC100653217 /// NTM (11731650_a_at) / RFU MAPK11 (11762145_a_at) / Fold change /veh MAPK11 (11762145_a_at) / RFU FIZ1 (11724087_x_at) / Fold change /veh FIZ1 (11724087_x_at) / RFU OASL (11726364_x_at) / Fold change /veh OASL (11726364_x_at) / RFU SOX15 (11748057_x_at) / Fold change /veh SOX15 (11748057_x_at) / RFU CD79A (11719716_a_at) / Fold change /veh CD79A (11719716_a_at) / RFU HIST1H1D (11736915_at) / Fold change /veh HIST1H1D (11736915_at) / RFU CASKIN2 (11723855_a_at) / Fold change /veh CASKIN2 (11723855_a_at) / RFU LOC730098 (11760151_x_at) / Fold change /veh LOC730098 (11760151_x_at) / RFU OR4N2 (11742367_at) / Fold change /veh OR4N2 (11742367_at) / RFU PRRT2 (11749266_a_at) / Fold change /veh PRRT2 (11749266_a_at) / RFU SNX32 (11753110_a_at) / Fold change /veh SNX32 (11753110_a_at) / RFU CDHR5 (11726645_a_at) / Fold change /veh CDHR5 (11726645_a_at) / RFU RCAN1 (11760418_a_at) / Fold change /veh RCAN1 (11760418_a_at) / RFU FAM167A (11723789_a_at) / Fold change /veh FAM167A (11723789_a_at) / RFU FAM26E (11764081_at) / Fold change /veh FAM26E (11764081_at) / RFU ISYNA1 (11749810_s_at) / Fold change /veh ISYNA1 (11749810_s_at) / RFU ACY1 (11761880_at) / Fold change /veh ACY1 (11761880_at) / RFU 11764098_at / Fold change /veh 11764098_at / RFU SAMD14 (11745864_x_at) / Fold change /veh SAMD14 (11745864_x_at) / RFU NPB (11741838_a_at) / Fold change /veh NPB (11741838_a_at) / RFU TMPRSS6 (11731388_a_at) / Fold change /veh TMPRSS6 (11731388_a_at) / RFU KRTAP10-2 (11738614_at) / Fold change /veh KRTAP10-2 (11738614_at) / RFU ARHGAP8 /// PRR5-ARHGAP8 (11727945_x_at) / Fold change /veh ARHGAP8 /// PRR5-ARHGAP8 (11727945_x_at) / RFU KRTAP5-7 /// NADSYN1 (11734609_at) / Fold change /veh KRTAP5-7 /// NADSYN1 (11734609_at) / RFU RASL12 (11751679_a_at) / Fold change /veh RASL12 (11751679_a_at) / RFU CDKN2B (11736163_a_at) / Fold change /veh CDKN2B (11736163_a_at) / RFU PRF1 (11729649_at) / Fold change /veh PRF1 (11729649_at) / RFU, ZNF638 /// ZNF638-IT1 / Fold change vs veh, ZNF638 /// ZNF638-IT1 / RFU, PANK3 / Fold change vs veh, PANK3 / RFU, SH3YL1 / Fold change vs veh, SH3YL1 / RFU, ZEB2 / Fold change vs veh, ZEB2 / RFU, NRIP1 / Fold change vs veh, NRIP1 / RFU, PTTG1IP / Fold change vs veh, PTTG1IP / RFU, CAPN2 / Fold change vs veh, CAPN2 / RFU, MED14 / Fold change vs veh, MED14 / RFU, SNORA58 / Fold change vs veh, SNORA58 / RFU, C1orf63 / Fold change vs veh, C1orf63 / RFU, LRRFIP1 / Fold change vs veh, LRRFIP1 / RFU, NDUFAF7 / Fold change vs veh, NDUFAF7 / RFU, SLC12A2 / Fold change vs veh, SLC12A2 / RFU, IBTK / Fold change vs veh, IBTK / RFU, ESF1 / Fold change vs veh, ESF1 / Fold change vs veh, TMEM50B / RFU, TAOK1 / Fold change vs veh, TAOK1 / RFU, ACBD3 / Fold change vs veh, ACBD3 / RFU, TMA16 / Fold change vs veh, TMA16 / RFU, RWDD3 / Fold change vs veh, RWDD3 / RFU, BCAT1 / Fold change vs veh, BCAT1 / RFU, EDEM3 / Fold change vs veh, EDEM3 / RFU, TMEM33 / Fold change vs veh, TMEM33 / RFU, WDR75 / Fold change vs veh, WDR75 / RFU, AHCTF1 / Fold change vs veh, AHCTF1 / RFU, TFRC / Fold change vs veh, TFRC / RFU, ZDHHC17 / Fold change vs veh, ZDHHC17 / RFU, NOM1 / Fold change vs veh, NOM1 / RFU, ARL8B / Fold change vs veh, ARL8B / RFU, ZBTB11 / Fold change vs veh, ZBTB11 / RFU, TAMM41 / Fold change vs veh, TAMM41 / RFU, KIAA1704 /// LOC100996395 / Fold change vs veh, KIAA1704 /// LOC100996395 / RFU, ING1 / Fold change vs veh, ING1 / RFU, TRMT61B / Fold change vs veh, TRMT61B / RFU, FUBP3 / Fold change vs veh, FUBP3 / RFU, TP53 / Fold change vs veh, TP53 / RFU, TNKS2 / Fold change vs veh, TNKS2 / RFU, ZFP14 / Fold change vs veh, ZFP14 / RFU, ACTR2 / Fold change vs veh, ACTR2 / RFU, PPP3R1 / Fold change vs veh, PPP3R1 / RFU, PIK3R1 / Fold change vs veh, PIK3R1 / RFU, HNRNPA1 / Fold change vs veh, HNRNPA1 / RFU, RNF170 / Fold change vs veh, RNF170 / RFU, ZNF28 / Fold change vs veh, ZNF28 / RFU, RNGTT / Fold change vs veh, RNGTT / RFU, OGT / Fold change vs veh, OGT / RFU, BRD1 / Fold change vs veh, BRD1 / RFU, MARS / Fold change vs veh, MARS / RFU, ZNF655 / Fold change vs veh, ZNF655 / RFU, FAHD1 / Fold change vs veh, FAHD1 / RFU, BDP1 / Fold change vs veh, BDP1 / RFU, LRRCC1 / Fold change vs veh, LRRCC1 / RFU, ARID1A / Fold change vs veh, ARID1A / RFU, ZNF146 / Fold change vs veh, ZNF146 / RFU, ZNF330 / Fold change vs veh, ZNF330 / RFU, GPN3 / Fold change vs veh, GPN3 / RFU, C9orf123 / Fold change vs veh, C9orf123 / RFU, N4BP2L2 / Fold change vs veh, N4BP2L2 / RFU, ARFIP1 / Fold change vs veh, ARFIP1 / RFU, FAM179B / Fold change vs veh, FAM179B / RFU, BCL10 / Fold change vs veh, BCL10 / RFU, UHRF1BP1L / Fold change vs veh, UHRF1BP1L / RFU, BET1 / Fold change vs veh, BET1 / RFU, CNOT2 / Fold change vs veh, CNOT2 / RFU, ZNF268 / Fold change vs veh, ZNF268 / Fold change vs veh, ZNF507 / RFU, DGCR2 / Fold change vs veh, DGCR2 / RFU, WDSUB1 / Fold change vs veh, WDSUB1 / Fold change vs veh, HSP90B1 /// MIR3652 / RFU, ADSS / Fold change vs veh, ADSS / RFU, GK / Fold change vs veh, GK / RFU, ZNF148 / Fold change vs veh, ZNF148 / RFU, TAF9 / Fold change vs veh, TAF9 / RFU, SLC1A5 / Fold change vs veh, SLC1A5 / RFU, SLMO2 / Fold change vs veh, SLMO2 / RFU, ABCC4 / Fold change vs veh, ABCC4 / RFU, LOC101060439 /// RAP1B / Fold change vs veh, LOC101060439 /// RAP1B / RFU, RFX7 / Fold change vs veh, RFX7 / RFU, GTPBP10 / Fold change vs veh, GTPBP10 / RFU, CNEP1R1 / Fold change vs veh, CNEP1R1 / RFU, BIVM-ERCC5 /// ERCC5 / Fold change vs veh, BIVM-ERCC5 /// ERCC5 / RFU, ILF3 / Fold change vs veh, ILF3 / RFU 11762660_at / Fold change /veh 11762660_at / RFU VCAN (11757783_s_at) / Fold change /veh VCAN (11757783_s_at) / RFU DDX43 (11728927_at) / Fold change /veh DDX43 (11728927_at) / RFU KRT8 (11758188_x_at) / Fold change /veh KRT8 (11758188_x_at) / RFU NKD1 (11759106_at) / Fold change /veh NKD1 (11759106_at) / RFU SRD5A1 (11742802_a_at) / Fold change /veh SRD5A1 (11742802_a_at) / RFU TPSAB1 /// TPSB2 (11721975_s_at) / Fold change /veh TPSAB1 /// TPSB2 (11721975_s_at) / RFU GSTM3 (11746129_a_at) / Fold change /veh GSTM3 (11746129_a_at) / RFU IL23R (11737362_x_at) / Fold change /veh IL23R (11737362_x_at) / RFU TMEM51 (11727254_a_at) / Fold change /veh TMEM51 (11727254_a_at) / RFU PIWIL2 (11732686_x_at) / Fold change /veh PIWIL2 (11732686_x_at) / RFU ORM1 (11744905_x_at) / Fold change /veh ORM1 (11744905_x_at) / RFU CCDC152 (11743942_at) / Fold change /veh CCDC152 (11743942_at) / RFU ECM1 (11717891_a_at) / Fold change /veh ECM1 (11717891_a_at) / RFU IL23R (11748794_a_at) / Fold change /veh IL23R (11748794_a_at) / RFU TNFAIP8L3 (11732012_x_at) / Fold change /veh TNFAIP8L3 (11732012_x_at) / RFU MBOAT4 (11741988_at) / Fold change /veh MBOAT4 (11741988_at) / RFU 11764193_at / Fold change /veh 11764193_at / RFU TMEM53 (11763286_at) / Fold change /veh TMEM53 (11763286_at) / RFU MAGEB2 (11727129_at) / Fold change /veh MAGEB2 (11727129_at) / RFU TMEM200A (11744735_a_at) / Fold change /veh TMEM200A (11744735_a_at) / RFU CCDC152 (11751479_a_at) / Fold change /veh CCDC152 (11751479_a_at) / RFU FAM211A (11726209_a_at) / Fold change /veh FAM211A (11726209_a_at) / RFU RGS16 (11746705_a_at) / Fold change /veh RGS16 (11746705_a_at) / RFU VCAN (11755009_s_at) / Fold change /veh VCAN (11755009_s_at) / RFU RHOB (11743442_s_at) / Fold change /veh RHOB (11743442_s_at) / RFU RGS16 (11720943_a_at) / Fold change /veh RGS16 (11720943_a_at) / RFU RGS16 (11720944_at) / Fold change /veh RGS16 (11720944_at) / RFU, VPS4B / Fold change vs veh, VPS4B / RFU, CREB1 / Fold change vs veh, CREB1 / RFU, DNAJC13 / Fold change vs veh, DNAJC13 / RFU, GNAQ / Fold change vs veh, GNAQ / RFU, CDK5R1 / Fold change vs veh, CDK5R1 / RFU, ZRANB3 / Fold change vs veh, ZRANB3 / RFU, CUL4A / Fold change vs veh, CUL4A / RFU, CCNY / Fold change vs veh, CCNY / RFU, UFL1 / Fold change vs veh, UFL1 / RFU, COG3 / Fold change vs veh, COG3 / RFU, DIAPH2 / Fold change vs veh, DIAPH2 / RFU, SKA2 / Fold change vs veh, SKA2 / RFU, AFF3 / Fold change vs veh, AFF3 / RFU, LMF1 / Fold change vs veh, LMF1 / RFU, IPO11 / Fold change vs veh, IPO11 / RFU, DFFB / Fold change vs veh, DFFB / RFU, FOXP1 / Fold change vs veh, FOXP1 / RFU, CARD8 / Fold change vs veh, CARD8 / RFU, STRN3 / Fold change vs veh, STRN3 / RFU, ADK / Fold change vs veh, ADK / RFU, RASSF2 / Fold change vs veh, RASSF2 / RFU, WIPF1 / Fold change vs veh, WIPF1 / RFU, LARP1B / Fold change vs veh, LARP1B / RFU, RASA1 / Fold change vs veh, RASA1 / RFU, RB1 / Fold change vs veh, RB1 / RFU, PPFIA1 / Fold change vs veh, PPFIA1 / RFU, MAT2A / Fold change vs veh, MAT2A / RFU, CCT5 / Fold change vs veh, CCT5 / RFU, WDR92 / Fold change vs veh, WDR92 / RFU, CUX1 / Fold change vs veh, CUX1 / RFU, TTC7A / Fold change vs veh, TTC7A / RFU, TMEM135 / Fold change vs veh, TMEM135 / RFU, DEPTOR / Fold change vs veh, DEPTOR / RFU, CPM / Fold change vs veh, CPM / RFU, DNAJB6 / Fold change vs veh, DNAJB6 / RFU, CACNA2D3 / Fold change vs veh, CACNA2D3 / RFU, DTX4 / Fold change vs veh, DTX4 / RFU, TFCP2 / Fold change vs veh, TFCP2 / RFU, GMCL1 /// GMCL1P1 / Fold change vs veh, GMCL1 /// GMCL1P1 / RFU, AEBP2 / Fold change vs veh, AEBP2 / RFU, SNHG1 /// SNORD22 /// SNORD25 /// SNORD26 /// SNORD27 /// SNORD28 /// SNORD29 /// SNORD31 / Fold change vs veh, SNHG1 /// SNORD22 /// SNORD25 /// SNORD26 /// SNORD27 /// SNORD28 /// SNORD29 /// SNORD31 / Fold change (Aza/veh), C12orf56 (ProbeSet 11735607_a_at) / Fold change (ACY-1035/veh), C12orf56 (ProbeSet 11735607_a_at) / Fold change (Aza/veh), FGFR1OP (ProbeSet 11751329_s_at) / Fold change (ACY-1035/veh), FGFR1OP (ProbeSet 11751329_s_at) / Fold change (Aza/veh), VPS36 (ProbeSet 11739960_a_at) / Fold change (ACY-1035/veh), VPS36 (ProbeSet 11739960_a_at) / RFU SYPL1 (11715823_x_at) / Fold change /veh SYPL1 (11715823_x_at) / RFU IGFBP7 (11715501_s_at) / Fold change /veh IGFBP7 (11715501_s_at) / RFU REEP3 (11722064_at) / Fold change /veh REEP3 (11722064_at) / RFU IGLL1 (11728026_x_at) / Fold change /veh IGLL1 (11728026_x_at): dose or concentration left out as unconfirmed
Conditions: ProbeSet 11741070_a_at; LIST B

Nc1ccc(-c2cccs2)cc1NC(=O)c1ccc2c(c1)cc(C1CC1)n2CCN1CCOCC1 [ACY-1035]
RFU, ZNF146: 2312.59 RFU
